Assay results from PMC10895678 (Journal of Medicinal Chemistry, 2024).
Values after ≈ are worked out from the molar mass of the structure shown. Values joined by “and” are separate entries in the source; they are usually repeats but may differ in a detail not shown here. Identical values can stand only once. Like-named read-outs stand apart in the source and are kept apart here.

What was measured:
[1] = Kinetic solubility (turbidimetry); format: physicochemical; settings: PBS pH 7.4, 1% DMSO, 25 °C
[2] = system: M. tuberculosis H37Rv; assay: Mycobacterial time kill experiments (total viable counts); format: cell-based, Mycobacterium tuberculosis; settings: 96 μM
[3] = Mouse PPB, rapid equilibrium dialysis; format: in vitro ADME; settings: mouse plasma (100%), RED, 37 °C
Procedure: Compounds were solubilized (10 mM in DMSO), and rapid equilibrium dialysis (RED) was used to measure the percentage binding to mouse plasma protein of the BGAz compounds at a final concentration of 5 μM. The BGAz compound was incubated in 100% mouse plasma and dialyzed against buffer in a RED device for 4 h at 37 °C in a 5% CO2 incubator, with continuous shaking at 200 rpm. Samples were matrix-matched and analyzed by LC-MS/MS against a six-point standard curve prepared with 100% plasma. All experiments were performed in triplicate.

[4] = Mouse PK, multiple oral dosing of single compounds; format: in vivo, KM mice; settings: for AUC(0-inf) / Cmax / Tmax / half-life: po
Description: Methods for combined single dosing (BGAz001–005) and dosing of single compounds multiple times (BGAz004 and BGAz005) are described in detail in the Supporting Information (PK Data).
Report on PK results of BGAz-004 by multiple oral dosing
7 Materials and instrument combined dosing
An MS2 Turnover type oscillator was purchased from IKA Work’s Guangzhou (China), and a 5415R ChromatographicanalyseswereconductedusinganAgilent1290InfinityIIhighperformanceliquidchromatography andAgilentTechnologies6470TripleQuadLC/MS.Propranolol(≥90%inpurity,internalstandard,IS)waspurchased fromtheSigmaChemicalCo.(China).Formicacid(HPLCgrade)andmethanol(HPLCgrade)werepurchasedfrom DIKMACo.(China).Allchemicalsandsolventswereanalyticalgrade.WaterwaspurifiedusingaMillipore(AK,USA) laboratoryultra-purewatersystem(0.2μmfilter).
KMmice,weighing25–35g(BeijingVitalRiverLaboratoryAnimalTechnologyCo.,Ltd.,China)wereutilisedforthe studies.The protocols were approved by the Animal Care and Use Committee, GIBH. Animals were maintained on standard animal chow and waterad libitum, in a climate-controlled room (23±1 °C 30–70% relative humidity, a minimumof tenexchangesof roomairperhouranda12hlight/darkcycle)foroneweekpriortoexperiments.
9 Pharmacokinetic studies
Compound BGAz-004 were dissolved in the solution containing DMSO (2%), ethanol (4%), Cremophor EL (4%) and ddH2O (90%).The mice were given solution with 30 mg/kg bygastric gavagefor 3 days.Whole blood samples (100μL)wereobtainedfromtheorbitalvenousplexusatthefollowingtimepointsafterthethirddaydosing:5,15,30 min and 1, 3, 5, 8, 24 hour. Whole blood samples were collected in heparinised tubes. The plasma fraction was immediately separated by centrifugation. The mice were humanely euthanasia by carbon dioxide 24 hours after […]
10 Plasma sample analysis
10.1 Standard curve sample preparation
ThecompoundsweredissolvedinDMSO(2mg/mL)anddilutedwithtoseriesconcentration(methanol:H 2O,1:1,10 μL) and blank plasma (50 μL) were added to 1.5 mL tubes and vortexed for 3 min, then acetonitrile-containing internalstandard(150μL)wasaddedandvortexedforafurther5min,andsubsequentlyspuninacentrifugeat13000 […]
10.2 Plasma and preparation
Plasmasampleswerepreparedusingaproteinprecipitationmethod.Solution(10μL,methanolH 2O,1:1)andplasma samples(50μL)wereaddedto1.5mLtubesandvortexfor3min,thenacetonitrile-containinginternalstandard(150 μL)wasaddedandvortexfor5min,andsubsequentlyspuninacentrifugeat13000× gfor40minat4°C.
Aftercentrifugation,supernatant(100μL)wastransferto96wellplatesandanalysedbyLC-MS/MSusinganAgilent 1290InfinityIIHPLCandanAgilentTechnologies6470TripleQuadLC/MS.
Report on PK results of BGAz-005 by multiple oral dosing
13 Materials and instrument combined dosing […]
fromtheSigmaChemicalCo.(China).Formicacid(HPLCgrade)andmethanol(HPLCgrade)werepurchased from […]
15 Pharmacokinetic studies
Compound BGAz-005 were dissolved in the solution containing DMSO (2%), ethanol (4%), Cremophor EL (4%) […]
16 Plasma sample analysis
16.1 Standard curve sample preparation
16.2 Plasma and preparation

[5] = system: BCG pTIC6-fbpB; format: cell-based, Mycobacterium bovis BCG
[6] = system: M. bovis BCG; format: cell-based, Mycobacterium bovis BCG
[7] = system: M. tuberculosis H37Rv; assay: MIC, resazurin microtiter assay (REMA), H37Rv; format: cell-based; settings: Mycobacterium tuberculosis, drug-sensitive reference strain, read-out: M. tb H37Rv MIC99
Procedure: The previously described resazurin microtiter assay (REMA) plate method was used.[73],[74] Compounds were two-fold serially diluted in CAMR Mycobacterium Medium MOD2 (CMM MOD2).[75] Individual wells, in a 96-well plate, were inoculated with 1 × 10^6 CFU mL^–1 bacilli and incubated for 7 days at 37 °C with agitation (200 rpm). Following this, resazurin solution was added to wells (0.02% (w/v) in PBS pH 7.4, supplemented with 5% Tween 80).[76] The 96-well plates were incubated at room temperature for 6 h. The OD570nm of each well was recorded using a Tecan Sunrise plate reader. The minimum inhibitory concentration (MIC99) was calculated using a modified Gompertz function.[77] The optical density measurements for each drug concentration were compared to vehicle control to determine the percentage reduction in bacterial optical density.

[8] = system: M. bovis BCG; assay: microbe, parasite or virus in culture; format: cell-based, Mycobacterium bovis BCG
[9] = multiple PO 30 mg/kg, times 4, mean of animals

SMILES: Brc1cc(Br)cc(C2CC(CN3CCCC3)N2Cc2ccccc2Br)c1 (stereo not shown) [BGAz-004]
- solubility kinetic at 5 min [1]: 9 µM (≈ 4.89 µg/mL)
- reduction of total viable count ([2]; after 6 days of exposure): 0.79 ± 2.20 log10 CFU mL^–1
- reduction of total viable count ([2]; after 14 days' exposure): 1.90 ± 1.28 log10 CFU mL^–1
- fraction unbound at 4 h, 5 μM [3]: < 0.01
- AUC(0-inf) ([4]; KM, mouse, plasma, 30 mg/kg, multiple PO 30 mg/kg, times 4, mean of animals, read-out: AUC(0-∞)): 5420 ng·h/mL
- Cmax ([4]; KM, mouse, plasma, 30 mg/kg, multiple PO 30 mg/kg, times 4, mean of animals, read-out: Cmax): 364 ng/mL
- Tmax ([4]; KM, mouse, plasma, 30 mg/kg, multiple PO 30 mg/kg, times 4, mean of animals, read-out: Tmax): 1 h
- half-life ([4]; KM, mouse, plasma, 30 mg/kg, multiple PO 30 mg/kg, times 4, mean of animals, read-out: t1/2z (converted)): 8.07 h
- AUC(0-inf) ([4]; KM, mouse, plasma, 30 mg/kg, multiple PO, times 4, 30 mg/kg, summary table, read-out: AUC(0-∞)): 5420 ng·h/mL
- Cmax ([4]; KM, mouse, plasma, 30 mg/kg, multiple PO, times 4, 30 mg/kg, summary table, read-out: Cmax): 364 ng/mL
- half-life ([4]; KM, mouse, plasma, 30 mg/kg, multiple PO, times 4, 30 mg/kg, summary table, read-out: T1/2 (converted)): 8.07 h
- Tmax ([4]; KM, mouse, plasma, 30 mg/kg, multiple PO, times 4, 30 mg/kg, summary table, read-out: Tmax): 1 h
- AUC(0-inf) ([4]; KM, mouse, plasma, 30 mg/kg, multiple daily dosing 4 × 30 mg/kg PO, read-out: AUC0-inf): 5420 ng·h/mL
- Cmax ([4]; KM, mouse, plasma, 30 mg/kg, multiple daily dosing 4 × 30 mg/kg PO, read-out: Cmax (Mouse, P.O.)): 363 ng/mL
- half-life ([4]; KM, mouse, plasma, 30 mg/kg, multiple daily dosing 4 × 30 mg/kg PO, read-out: T1/2 (Mouse, P.O.) (converted)): 8.1 h
- Tmax ([4]; KM, mouse, plasma, 30 mg/kg, multiple daily dosing 4 × 30 mg/kg PO, read-out: Tmax (Mouse, P.O.)): 1 h
- concentration at 0.083 h ([4]; KM, mouse, plasma, multiple PO 30 mg/kg, times 4, 0.083 h): 214 nM and 115 ng/mL
- concentration at 0.25 h ([4]; KM, mouse, plasma, multiple PO 30 mg/kg, times 4, 0.25 h): 361 nM and 195 ng/mL
- concentration at 0.5 h ([4]; KM, mouse, plasma, multiple PO 30 mg/kg, times 4, 0.5 h): 590 nM and 319 ng/mL
- concentration at 1 h ([4]; KM, mouse, plasma, multiple PO 30 mg/kg, times 4, 1 h): 674 nM and 364 ng/mL
- concentration at 3 h ([4]; KM, mouse, plasma, multiple PO 30 mg/kg, times 4, 3 h): 594 nM and 321 ng/mL
- concentration at 5 h ([4]; KM, mouse, plasma, multiple PO 30 mg/kg, times 4, 5 h): 268 ng/mL and 496 nM
- concentration at 8 h ([4]; KM, mouse, plasma, multiple PO 30 mg/kg, times 4, 8 h): 243 ng/mL and 450 nM
- concentration at 24 h ([4]; KM, mouse, plasma, multiple PO 30 mg/kg, times 4, 24 h): 63.7 ng/mL and 118 nM
- AUC(0-t) ([4]; KM, mouse, plasma, multiple PO 30 mg/kg, times 4, mean of animals): 4760 ng·h/mL
- CL/F ([4]; KM, mouse, plasma, multiple PO 30 mg/kg, times 4, mean of animals, read-out: CLz/F (converted)): 95.4 mL/min/kg
- MRT last ([4]; KM, mouse, plasma, multiple PO 30 mg/kg, times 4, mean of animals, read-out: MRT(0-t)): 7.85 h
- MRT inf ([4]; KM, mouse, plasma, multiple PO 30 mg/kg, times 4, mean of animals, read-out: MRT(0-∞)): 11.7 h
- Vd/F ([4]; KM, mouse, plasma, multiple PO 30 mg/kg, times 4, mean of animals, read-out: Vz/F): 67.5 L/kg
- k el ([4]; KM, mouse, plasma, multiple PO 30 mg/kg, times 4, mean of animals, read-out: λz (converted)): 2.89e-05 s⁻¹
- AUMC(0-t) [4, 9]: 36514.994 h*h*μg
- AUMC(0-∞) [4, 9]: 62413.77 h*h*μg
- C_last [4, 9]: 46.151 µg
- R_AUC(t/∞) [4, 9]: 87.55%
- VRT(0-t) [4, 9]: 41.471 h^2
- VRT(0-∞) [4, 9]: 162.525 h^2
- T1/2 (Mouse, P.O.) ([4]; multiple daily dosing 4 × 30 mg/kg PO, 30 mg/kg): 8.07 h
- BCG pTIC6-fbpB MIC [5]: 28 µM
- increase in MIC upon overexpression of FbpB [5]: two-fold increase
- log2FoldChange, gene BCG_0001 [6]: -0.1191
- log2FoldChange, gene BCG_0002 [6]: -0.5569
- log2FoldChange, gene BCG_0003 [6]: -0.5971
- log2FoldChange, gene BCG_0004 [6]: -0.2384
- log2FoldChange, gene BCG_0005 [6]: 0.5266
- MIC99 [7]: 3.3 µM (≈ 1.79 µg/mL)
- MIC99 ([8]; Mycobacterium tuberculosis variant bovis BCG, BCG, read-out: BCG MIC99): 14 µM (≈ 7.6 µg/mL)
- MIC50 ([8]; Mycobacterium tuberculosis variant bovis BCG, BCG, read-out: MIC50 BCG): 15 µM (≈ 8.15 µg/mL)
- MIC99 ([8]; Mycobacterium tuberculosis variant bovis BCG, BCG, read-out: MIC99 BCG): 14 µM (≈ 7.6 µg/mL)
- increase in activity against M. bovis BCG compared to BGAz-001 ([8]; fold, from MIC99): approximately three- to four-fold increase
